#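 Method: 48-hour compound exposure of cells in 96-well plates, five concentrations, linear interpolation of endpoints. Abbreviation: GI50, concentration required for 50% inhibition of growth. TGI: total growth inhibition.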
# Columns and labels:
# Assay in all cases: growth of human tumour cells (NCI), 48 h
# [1] = test system: UACC-257 melanoma
# [2] = test system: MDA-MB-231 breast
# [3] = test system: SN12C renal
# [4] = test system: TK-10 renal
# [5] = test system: SNB-75 CNS
# [6] = test system: CCRF-CEM leukemia
# [7] = test system: SF-295 CNS
# [8] = test system: UO-31 renal
# [9] = test system: UACC-62 melanoma
# [10] = test system: PC-3 prostate
Compound,TGI [1],TGI [2],TGI [3],TGI [4],TGI [5],TGI [6],TGI [7],TGI [8],TGI [9],TGI [10],GI50 [1],GI50 [2],GI50 [3],GI50 [4],GI50 [5],GI50 [6],GI50 [7],GI50 [10],GI50 [8],GI50 [9]
COc1ccc(C(=O)C2CC3(CCC2(O)c2ccc(OC)cc2)CC(=O)Nc2ccccc2C3=O)cc1 (configuration not stated),> 100 µM,> 100 µM,> 100 µM,> 100 µM,> 100 µM,> 100 µM,> 100 µM,> 100 µM,> 100 µM,> 100 µM,–,–,–,–,–,–,–,–,–,–
ClCCN(CCCl)Cc1ccc(Nc2ccnc3cc(Cl)ccc23)cc1,5.71 µM,3.49 µM,4.02 µM,6.22 µM,3.72 µM,2.99 µM,6.98 µM,–,–,5.71 µM,1.9 µM,1.66 µM,0.48 µM,2.42 µM,1.34 µM,0.265 µM,2.08 µM,1.57 µM,–,–
COC[C@H]1C(=O)NCC(=O)N2NCCC[C@H]2C(=O)N(O)[C@H](C)C(=O)O[C@@H](C(C)C)[C@H](NC(=O)[C@](C)(O)[C@]2(O)CC[C@@H](CC(C)C)[C@H](C)O2)C(=O)N2NCCC[C@@H]2C(=O)N1O,0.0292 µM,0.0432 µM,0.0411 µM,0.0322 µM,0.011 µM,–,–,0.0458 µM,0.0312 µM,0.0326 µM,0.015 µM,< 0.0111 µM,< 0.0126 µM,0.0181 µM,< 0.01 µM,–,–,0.0174 µM,0.0192 µM,0.0154 µM
CCOc1ncn(-c2ccc(NC(=S)Nc3cccc(O)c3)cc2)n1,> 100 µM,> 100 µM,> 100 µM,> 100 µM,> 100 µM,> 100 µM,> 100 µM,> 100 µM,> 100 µM,> 100 µM,–,–,–,–,–,–,–,–,–,–

# Reference: PubChem BioAssay (NCI)
